The text below walks through data of US8865659B2, “Compositions for prevention or treatment of Hepatitis C virus containing ginsenoside Rg3 as an active ingredient” (priority 2012, dated 2014).

Format in all cases: cell-based
Data set [1] has as its system JFH-1 virus infected Huh 7.5.1 cell. Put plainly: MTT assay, cytotoxicity of ginsenosides on liver cancer cell line. To be noted: 10, 25, 50 and 100 μL concentration (so in the source), 72 hours. The protocol:
MTT assay was conducted to identify cytotoxicity of ginsenosides.
Specifically, the cells (Huh7.5.1) were seeded at the rate of 1×10^4 cells (in 100 μL)/well in 96 well plates, and incubated in 5% CO2 incubator for less than 24 hours. And after the samples were washed with 1×PBS once and treated with the rate of 50 ul JFH-1 virus/well, and replaced in the 5%, CO2 incubator for six hours. After taking out the cell samples from the incubator, the samples were washed with 1×PBS once and replaced in the culturing media comprising 10, 25, 50 and 100 μL concentration of the above stated seven (7) ginsenosides in Example 3, respectively. After the cells were incubated in 5% CO2 incubator for 72 hours, 20 μl of assay reagent, EZ Cytox, was seeded into each well with the care of no bubble producing. And then, the treated cells were incubated in 5% CO2 incubator for 2.5 hours, followed by examining absorbance at 420 nm with Microplate Reader (Molecular Devices, Minn.). DMSO was the solvent used when treating with ginsenoside, and both the control group and the cells infected with JFH-1 group were also treated with the solvent DMSO.
(In general: Tetrazolium assays rely on reduction of a dye to a coloured formazan, in cell work by metabolically active cells.)

The subject of data set [2] is Huh 7.5.1 cells infected with JFH-1 virus. Put plainly: Microscopic identification of virus suppression effect (cell shape, phase contrast microscope). The note with it: 100 μM, JFH-1 infected. Here is the method: About 200,000 Huh 7.5.1 cells were added to a 60×15 mm cell culture dish and every 100 μM of seven ginsenosides (Ro, Re, Rg1, Rg2, Rg3, Rh1, Rh2) per 60×15 mm cell culture dish each was treated. Since it was necessary for ginsenosides in powder formulation to make solutions for the experiments, 50 mM basic concentration solutions for the seven ginsenosides each were prepared and the basic solutions were refrigerated at 4° C. until they were needed.
Non-treatment group (Control), Non-treatment group and DMSO 10 μl treatment group (Control+DMSO 10 μl), JFH-1 virus treatment group (Only JFH-1), JFH-1 virus and DMSO 10 μl treatments group (JFH-1+DMSO 10 μl), JFH-1 virus and Ro 100 uM treatments group (JFH-1+Ro 100 uM), JFH-1 virus and Re 100 uM treatments group (JFH-1+Re 100 uM), JFH-1 virus and Rg1 100 uM treatments group (JFH-1+Rg1 100 uM), JFH-1 virus and Rg2 100 uM treatments group (JFH-1+Rg2 100 uM), JFH-1 virus and Rg3 100 uM treatments group (JFH-1+Rg3 100 uM), JFH-1 virus and Rh1 100 uM treatments group (JFH-1+Rh1 100 uM), JFH-1 virus and Rh2 100 uM treatments group (JFH-1+Rh2 100 uM), JFH-1 virus and Rg1 100 uM treatments group (JFH-1+Rg1 100 uM).
The experiment was carried out as follow. First, 200,000 Huh 7.5.1 cells were placed in a 60×15 mm cell culture dish. Next day, Japanese Fulminant Hepatitis-1 virus (JFH-1) stock vial which was stored in −70° C. refrigerator was taken out and thawed out in a container filled with ice-water. The culture medium was collected from the cultured 60×15 mm cell culture dish, washed with 1×PBS and collected, again. 1.5 ml of JFH-1 virus solution per 60×15 mm cell culture dish each was added. The dish was shaken to cover the surface sufficiently. The dish was laid in a 5% CO2 incubator at 37° C. for 6 hours and after that, the supernatant was draw out. 1×PBS was spread on the cell surface as slow as possible and after one time washing, cells were collected. 5 ml of cell culture media was added to control and JFH-1 treatments groups. At the last step of virus-infection, 5 ml CM and each […] of ginsenosides which was set to 50 mM concentration were added to the cell culture media. After that, the cell culture media was laid in a 5% CO2 incubator at 37° C. After 72 hours, the following steps were carried out.
As described in the above Example 3, each 100 μM of seven ginsenosides (Ro, Re, Rg1, Rg2, Rg3, Rh1, Rh2) was treated to Huh 7.5.1 cells. After 24 hours and 72 hours, the shapes of Huh 7.5.1 cells were observed using a phase contrast microscope (ECLIPSE TE300, Nicon) of 400× magnifications.

For data set [3], the system named is TNF-α. The data set can be described thus: Real-time PCR for TNF-α level in virus-infected Huh 7.5.1 cells. The protocol: To identify a mechanism of apoptosis action, virus-infected Huh 7.5.1 cells were treated with ginsenoside Rg3 and conducted real-time PCR (Taqman Real-time Quantitative RT-PCR Assay for HCV RNA Detection) to estimate TNF-α level.
First, a total number of 50,000 Huh 7.5.1 cells were incubated in 24 well and a total RNA was extracted from the above stated treated cells using Rneasy mini kit (QIAGEN Corp.). And then, the total RNA was quantified by Nanodrop 1000 (Thermo Scientific Corp.), and manufactured cDNA by conducting RT PCR (Reverse Transcription-PCR) using i cycler, (BIO-RAD Co.). After the synthesized cDNAs were reacted with TaqMan GX Master Mix (Applied Biosystems, Branchburg, N.J.), TNF-α, B-actin mRNAs were quantified by 96 well real-time PCR (StepOne Plus Sequence detector system, Applied Biosystems). Verified primer/probe set was purchased to conduct the TaqMan Gene Expression assay in this experiment (Gene: TNF-α (TNF-alpha) # Hs01113624_g1, Gene Symbol: ACTB # Hs99999903_m1).
A general note: In qPCR the cycle at which signal appears reflects the starting amount.

`CC(C)=CCC[C@](C)(O)[C@H]1CC[C@]2(C)[C@@H]1[C@H](O)C[C@@H]1[C@@]3(C)CC[C@H](O[C@@H]4O[C@H](CO)[C@@H](O)[C@H](O)[C@H]4O[C@@H]4O[C@H](CO)[C@@H](O)[C@H](O)[C@H]4O)C(C)(C)[C@@H]3CC[C@]12C` [ginsenoside Rg3]: the “cytotoxicity (MTT assay)” value in data set [1] is on record as “no cytotoxicity”. For the same compound, the “shapes of Huh 7.5.1 cells” value in data set [2] (24 hours after treatment) and in data set [2] (72 hours after treatment) was “fuses cells” each time. Besides, the “level of TNF-α” value in data set [3] is listed as “remarkably decreased”.
